According to the supplement of paper PMC8882468:

Tested on: HCI-027 (organoid from a triple-negative breast cancer xenograft)
Test: CTG-3D luminescence at 96 h relative to day-0 seeding control (ratio to day 0); higher = more growth / less cytotoxicity; PDxO 3D drug screen, 96 h, CTG-3D normalised to day-0 seeding control.
Details: 12.5 pM; days in culture: 176

Row | SMILES | CTG-3D luminescence at 96 h
1 | O=C(O)C1(C(=O)O)CCC1.[NH2-].[NH2-].[Pt+2] [carboplatin] | 1.57
2 | COc1cc2c(Oc3ccc4[nH]c(C)cc4c3F)ncnc2cc1OCCCN1CCCC1 [cediranib] | 1.99
3 | C[C@@H]1COCCN1c1cc(C2([S@](C)(=N)=O)CC2)nc(-c2cc[nH]c3nccc2-3)n1 [ceralasertib] | 2
4 | Cc1cc(Nc2ncc(Cl)c(Nc3ccccc3S(=O)(=O)C(C)C)n2)c(OC(C)C)cc1C1CCNCC1 [ceritinib] | 2.26
5 | O=C(c1ccc(F)c(F)c1Nc1ccc(I)cc1F)N1CC(O)([C@@H]2CCCCN2)C1 [cobimetinib] | 2.03
6 | C[C@H](NC(=O)CCC(F)(F)F)C(=O)N[C@@H]1C(=O)N(CCO)c2ncccc2-c2ccccc21 [crenigacestat] | 1.81
7 | COc1cccc2c1C(=O)c1c(O)c3c(c(O)c1C2=O)C[C@@](O)(C(=O)CO)C[C@@H]3O[C@H]1C[C@H](N)[C@H](O)[C@H](C)O1 [doxorubicin] | 2.14
8 | C[C@]12CC[C@@H]3c4ccc(O)cc4C[C@@H](CCCCCCCCC[S+]([O-])CCCC(F)(F)C(F)(F)F)[C@H]3[C@@H]1CC[C@@H]2O (some centres not stated) [fulvestrant] | 2.05
9 | Nc1ccn([C@@H]2O[C@H](CO)[C@@H](O)C2(F)F)c(=O)n1 [gemcitabine] | 2.02

Same assay, conditions: 12.5 pM; days in culture: 194

Row | SMILES | CTG-3D luminescence at 96 h
10 | O=C(O)C1(C(=O)O)CCC1.[NH2-].[NH2-].[Pt+2] [carboplatin] | 1.43
11 | COc1cc2c(Oc3ccc4[nH]c(C)cc4c3F)ncnc2cc1OCCCN1CCCC1 [cediranib] | 1.76
12 | C[C@@H]1COCCN1c1cc(C2([S@](C)(=N)=O)CC2)nc(-c2cc[nH]c3nccc2-3)n1 [ceralasertib] | 1.7
13 | Cc1cc(Nc2ncc(Cl)c(Nc3ccccc3S(=O)(=O)C(C)C)n2)c(OC(C)C)cc1C1CCNCC1 [ceritinib] | 1.42
14 | O=C(c1ccc(F)c(F)c1Nc1ccc(I)cc1F)N1CC(O)([C@@H]2CCCCN2)C1 [cobimetinib] | 1.89
15 | C[C@H](NC(=O)CCC(F)(F)F)C(=O)N[C@@H]1C(=O)N(CCO)c2ncccc2-c2ccccc21 [crenigacestat] | 1.84
16 | COc1cccc2c1C(=O)c1c(O)c3c(c(O)c1C2=O)C[C@@](O)(C(=O)CO)C[C@@H]3O[C@H]1C[C@H](N)[C@H](O)[C@H](C)O1 [doxorubicin] | 1.83
17 | C[C@]12CC[C@@H]3c4ccc(O)cc4C[C@@H](CCCCCCCCC[S+]([O-])CCCC(F)(F)C(F)(F)F)[C@H]3[C@@H]1CC[C@@H]2O (some centres not stated) [fulvestrant] | 1.74
18 | Nc1ccn([C@@H]2O[C@H](CO)[C@@H](O)C2(F)F)c(=O)n1 [gemcitabine] | 1.78

Same assay, conditions: 12.5 pM; days in culture: 201

Row | SMILES | CTG-3D luminescence at 96 h
19 | O=C(O)C1(C(=O)O)CCC1.[NH2-].[NH2-].[Pt+2] [carboplatin] | 2.1
20 | COc1cc2c(Oc3ccc4[nH]c(C)cc4c3F)ncnc2cc1OCCCN1CCCC1 [cediranib] | 2.17
21 | C[C@@H]1COCCN1c1cc(C2([S@](C)(=N)=O)CC2)nc(-c2cc[nH]c3nccc2-3)n1 [ceralasertib] | 1.78
22 | Cc1cc(Nc2ncc(Cl)c(Nc3ccccc3S(=O)(=O)C(C)C)n2)c(OC(C)C)cc1C1CCNCC1 [ceritinib] | 2.21
23 | O=C(c1ccc(F)c(F)c1Nc1ccc(I)cc1F)N1CC(O)([C@@H]2CCCCN2)C1 [cobimetinib] | 1.99
24 | C[C@H](NC(=O)CCC(F)(F)F)C(=O)N[C@@H]1C(=O)N(CCO)c2ncccc2-c2ccccc21 [crenigacestat] | 2.13
25 | COc1cccc2c1C(=O)c1c(O)c3c(c(O)c1C2=O)C[C@@](O)(C(=O)CO)C[C@@H]3O[C@H]1C[C@H](N)[C@H](O)[C@H](C)O1 [doxorubicin] | 1.99
26 | C[C@]12CC[C@@H]3c4ccc(O)cc4C[C@@H](CCCCCCCCC[S+]([O-])CCCC(F)(F)C(F)(F)F)[C@H]3[C@@H]1CC[C@@H]2O (some centres not stated) [fulvestrant] | 2.63
27 | Nc1ccn([C@@H]2O[C@H](CO)[C@@H](O)C2(F)F)c(=O)n1 [gemcitabine] | 2.19

Same assay, conditions: 0.00025 µM; days in culture: 176

Row | SMILES | CTG-3D luminescence at 96 h
28 | O=C(O)C1(C(=O)O)CCC1.[NH2-].[NH2-].[Pt+2] [carboplatin] | 1.38
29 | COc1cc2c(Oc3ccc4[nH]c(C)cc4c3F)ncnc2cc1OCCCN1CCCC1 [cediranib] | 1.2
30 | C[C@@H]1COCCN1c1cc(C2([S@](C)(=N)=O)CC2)nc(-c2cc[nH]c3nccc2-3)n1 [ceralasertib] | 1.26
31 | Cc1cc(Nc2ncc(Cl)c(Nc3ccccc3S(=O)(=O)C(C)C)n2)c(OC(C)C)cc1C1CCNCC1 [ceritinib] | 1.27
32 | O=C(c1ccc(F)c(F)c1Nc1ccc(I)cc1F)N1CC(O)([C@@H]2CCCCN2)C1 [cobimetinib] | 1.26
33 | C[C@H](NC(=O)CCC(F)(F)F)C(=O)N[C@@H]1C(=O)N(CCO)c2ncccc2-c2ccccc21 [crenigacestat] | 1.25
34 | COc1cccc2c1C(=O)c1c(O)c3c(c(O)c1C2=O)C[C@@](O)(C(=O)CO)C[C@@H]3O[C@H]1C[C@H](N)[C@H](O)[C@H](C)O1 [doxorubicin] | 1.93
35 | C[C@]12CC[C@@H]3c4ccc(O)cc4C[C@@H](CCCCCCCCC[S+]([O-])CCCC(F)(F)C(F)(F)F)[C@H]3[C@@H]1CC[C@@H]2O (some centres not stated) [fulvestrant] | 1.67
36 | Nc1ccn([C@@H]2O[C@H](CO)[C@@H](O)C2(F)F)c(=O)n1 [gemcitabine] | 1.16

Same assay, conditions: 0.00025 µM; days in culture: 194

Row | SMILES | CTG-3D luminescence at 96 h
37 | O=C(O)C1(C(=O)O)CCC1.[NH2-].[NH2-].[Pt+2] [carboplatin] | 1.55
38 | COc1cc2c(Oc3ccc4[nH]c(C)cc4c3F)ncnc2cc1OCCCN1CCCC1 [cediranib] | 1.48
39 | C[C@@H]1COCCN1c1cc(C2([S@](C)(=N)=O)CC2)nc(-c2cc[nH]c3nccc2-3)n1 [ceralasertib] | 1.54
40 | Cc1cc(Nc2ncc(Cl)c(Nc3ccccc3S(=O)(=O)C(C)C)n2)c(OC(C)C)cc1C1CCNCC1 [ceritinib] | 1.26
41 | O=C(c1ccc(F)c(F)c1Nc1ccc(I)cc1F)N1CC(O)([C@@H]2CCCCN2)C1 [cobimetinib] | 1.29
42 | C[C@H](NC(=O)CCC(F)(F)F)C(=O)N[C@@H]1C(=O)N(CCO)c2ncccc2-c2ccccc21 [crenigacestat] | 1.19
43 | COc1cccc2c1C(=O)c1c(O)c3c(c(O)c1C2=O)C[C@@](O)(C(=O)CO)C[C@@H]3O[C@H]1C[C@H](N)[C@H](O)[C@H](C)O1 [doxorubicin] | 1.43
44 | C[C@]12CC[C@@H]3c4ccc(O)cc4C[C@@H](CCCCCCCCC[S+]([O-])CCCC(F)(F)C(F)(F)F)[C@H]3[C@@H]1CC[C@@H]2O (some centres not stated) [fulvestrant] | 1.82
45 | Nc1ccn([C@@H]2O[C@H](CO)[C@@H](O)C2(F)F)c(=O)n1 [gemcitabine] | 1.42

Same assay, conditions: 0.00025 µM; days in culture: 201

Row | SMILES | CTG-3D luminescence at 96 h
46 | O=C(O)C1(C(=O)O)CCC1.[NH2-].[NH2-].[Pt+2] [carboplatin] | 1.98
47 | COc1cc2c(Oc3ccc4[nH]c(C)cc4c3F)ncnc2cc1OCCCN1CCCC1 [cediranib] | 1.9
48 | C[C@@H]1COCCN1c1cc(C2([S@](C)(=N)=O)CC2)nc(-c2cc[nH]c3nccc2-3)n1 [ceralasertib] | 1.98
49 | Cc1cc(Nc2ncc(Cl)c(Nc3ccccc3S(=O)(=O)C(C)C)n2)c(OC(C)C)cc1C1CCNCC1 [ceritinib] | 1.72
50 | O=C(c1ccc(F)c(F)c1Nc1ccc(I)cc1F)N1CC(O)([C@@H]2CCCCN2)C1 [cobimetinib] | 1.85
51 | C[C@H](NC(=O)CCC(F)(F)F)C(=O)N[C@@H]1C(=O)N(CCO)c2ncccc2-c2ccccc21 [crenigacestat] | 1.77
52 | COc1cccc2c1C(=O)c1c(O)c3c(c(O)c1C2=O)C[C@@](O)(C(=O)CO)C[C@@H]3O[C@H]1C[C@H](N)[C@H](O)[C@H](C)O1 [doxorubicin] | 2.28
53 | C[C@]12CC[C@@H]3c4ccc(O)cc4C[C@@H](CCCCCCCCC[S+]([O-])CCCC(F)(F)C(F)(F)F)[C@H]3[C@@H]1CC[C@@H]2O (some centres not stated) [fulvestrant] | 2.77
54 | Nc1ccn([C@@H]2O[C@H](CO)[C@@H](O)C2(F)F)c(=O)n1 [gemcitabine] | 1.37

Same assay, conditions: 0.005 µM; days in culture: 176

Row | SMILES | CTG-3D luminescence at 96 h
55 | O=C(O)C1(C(=O)O)CCC1.[NH2-].[NH2-].[Pt+2] [carboplatin] | 2.11
56 | COc1cc2c(Oc3ccc4[nH]c(C)cc4c3F)ncnc2cc1OCCCN1CCCC1 [cediranib] | 2.24
57 | C[C@@H]1COCCN1c1cc(C2([S@](C)(=N)=O)CC2)nc(-c2cc[nH]c3nccc2-3)n1 [ceralasertib] | 2.33
58 | Cc1cc(Nc2ncc(Cl)c(Nc3ccccc3S(=O)(=O)C(C)C)n2)c(OC(C)C)cc1C1CCNCC1 [ceritinib] | 2.21
59 | O=C(c1ccc(F)c(F)c1Nc1ccc(I)cc1F)N1CC(O)([C@@H]2CCCCN2)C1 [cobimetinib] | 2.15
60 | C[C@H](NC(=O)CCC(F)(F)F)C(=O)N[C@@H]1C(=O)N(CCO)c2ncccc2-c2ccccc21 [crenigacestat] | 0.916
61 | COc1cccc2c1C(=O)c1c(O)c3c(c(O)c1C2=O)C[C@@](O)(C(=O)CO)C[C@@H]3O[C@H]1C[C@H](N)[C@H](O)[C@H](C)O1 [doxorubicin] | 1.87
62 | C[C@]12CC[C@@H]3c4ccc(O)cc4C[C@@H](CCCCCCCCC[S+]([O-])CCCC(F)(F)C(F)(F)F)[C@H]3[C@@H]1CC[C@@H]2O (some centres not stated) [fulvestrant] | 2.89
63 | Nc1ccn([C@@H]2O[C@H](CO)[C@@H](O)C2(F)F)c(=O)n1 [gemcitabine] | 1.52

Same assay, conditions: 0.005 µM; days in culture: 194

Row | SMILES | CTG-3D luminescence at 96 h
64 | O=C(O)C1(C(=O)O)CCC1.[NH2-].[NH2-].[Pt+2] [carboplatin] | 1.4
65 | COc1cc2c(Oc3ccc4[nH]c(C)cc4c3F)ncnc2cc1OCCCN1CCCC1 [cediranib] | 1.39
66 | C[C@@H]1COCCN1c1cc(C2([S@](C)(=N)=O)CC2)nc(-c2cc[nH]c3nccc2-3)n1 [ceralasertib] | 1.32
67 | Cc1cc(Nc2ncc(Cl)c(Nc3ccccc3S(=O)(=O)C(C)C)n2)c(OC(C)C)cc1C1CCNCC1 [ceritinib] | 1.1
68 | O=C(c1ccc(F)c(F)c1Nc1ccc(I)cc1F)N1CC(O)([C@@H]2CCCCN2)C1 [cobimetinib] | 1.38
69 | C[C@H](NC(=O)CCC(F)(F)F)C(=O)N[C@@H]1C(=O)N(CCO)c2ncccc2-c2ccccc21 [crenigacestat] | 0.958
70 | COc1cccc2c1C(=O)c1c(O)c3c(c(O)c1C2=O)C[C@@](O)(C(=O)CO)C[C@@H]3O[C@H]1C[C@H](N)[C@H](O)[C@H](C)O1 [doxorubicin] | 1.48
71 | C[C@]12CC[C@@H]3c4ccc(O)cc4C[C@@H](CCCCCCCCC[S+]([O-])CCCC(F)(F)C(F)(F)F)[C@H]3[C@@H]1CC[C@@H]2O (some centres not stated) [fulvestrant] | 1.53
72 | Nc1ccn([C@@H]2O[C@H](CO)[C@@H](O)C2(F)F)c(=O)n1 [gemcitabine] | 0.983
